Source: paper PMC5556071, “ATR inhibition facilitates targeting of leukemia dependence on convergent nucleotide biosynthetic pathways” (Nature Communications, 2017)
Where “and” joins values, the source holds several entries; their conditions need not be identical. Equal entries are not always repeated.

System: CEM cells
Test: Non-targeted LC-MS metabolite profiling: percent [13C6]glucose labeling and relative metabolite levels
Assay type: cell-based, human
Details: CEM cells, 12 h following release from G1 arrest, replicates #1-#6
Text: To further investigate the functions of dCK and ATR at the G1/S transition in CEM cells, a non-targeted liquid chromatography mass spectrometry (LC-MS) assay was used to determine the utilization of labeled [^13C6]glucose and [^13C9,^15N3]deoxycytidine, the main substrates for de novo and salvage nucleotide biosynthesis, respectively. Of the 166 metabolites identified in CEM cells treated with VE-822 and/or dCKi, 105 metabolites found in all four treatment groups contained glucose-derived ^13C atoms. […] These metabolites included intermediates such as rUTP, rCTP and rCDP in the de novo dCTP biosynthesis (Fig. 1d). […] However, several deoxyribonucleotides, including dCTP, were below the limit of detection of the non-targeted LC-MS approach, raising the concern that the sensitivity of this assay is not sufficient to measure the contribution of the salvage pathway or the ratio of de novo and salvage biosynthesis to these pools. To address this problem, a newly developed targeted MS assay was developed (Fig. 1e and Supplementary Fig. 3). In this assay, samples containing either extracted dNTPs or hydrolyzed DNA from labeled cells are separated by LC for detection by a triple quadrupole mass spectrometer using multiple reaction monitoring (LC-MS/MS-MRM). The first (Q1) and third (Q3) quadrupoles function as mass filters, while the second (Q2) quadrupole serves as a collision chamber (Fig. 1e). For instance, to profile the biosynthetic composition of deoxycytidine (dC) derived from hydrolyzed DNA or dCTP, an intact, protonated dC ion is selected in Q1, followed by fragmentation of the glycosidic bond, which releases protonated cytosine in Q2, that is filtered in Q3 and detected to generate an ion chromatogram. The peak areas for the ion chromatograms of salvage [^13C9,^15N3]dC (red trace), de novo [^13C5]dC (black trace, from [^13C6]glucose) and unlabeled dC (gray trace) (Fig. 1e) are used to determine the relative contributions of the de novo and salvage routes both to dCTP pools and to DNA-incorporated dCTP.
Cells were transferred into RPMI-1640 without glucose and supplemented with 10% dialyzed FBS (Gibco) containing the following labeled substrates: precursors for de novo [U-^13C6]glucose (Sigma-Aldrich, 389374) at 11 mM; precursors for purine salvage [U-^13C10,^15N5]dA (Cambridge Isotopes, CIL 3896), [^15N5]dA (Cambridge Isotopes, NLM-3895) and [^15N5]dG (Cambridge Isotopes, NLM-3899) at 5 µM or as indicated; and precursors for pyrimidine salvage: [U-^13C9,^15N3]dC (Silantes, 124603602) and [U-^13C10,^15N2]dT (Cambridge Isotopes, CNLM-3902) at 5 µM and [^15N2]orotate (Cambridge Isotopes, NLM-1048) at indicated concentrations. The cells were incubated for 12 h or as indicated before sample collection and processing. […]
Non-targeted LC-MS metabolic assays. 1 x 10^6 cells were washed with ice-cold 150 mM ammonium acetate twice before adding 1 mL of ice-cold 80% methanol with 10 nM norvaline as an internal standard. After vigorous vortexing, samples were centrifuged at maximum speed, the aqueous layer was transferred to a glass vial and the metabolites were dried under vacuum. Metabolites were resuspended in 50 μL 70% acetonitrile (ACN) and 5 μL of this solution used for the mass spectrometer-based analysis. The analysis was performed on a Q Exactive (Thermo Scientific) in polarity-switching mode with positive voltage 4.0 kV and negative voltage 4.0 kV. The mass spectrometer was coupled to an UltiMate 3000RSLC (Thermo Scientific) UHPLC system. Mobile phase A was 5 mM ammonium acetate (NH4AcO), pH 9.9, B was acetonitrile and the separation achieved on a Luna […] NH2 100 A column (150 × 2.0 mm, Phenomenex). The flow was 200 μL/min, and the gradient ran from 15% A to 95% A in 18 min, followed by an isocratic step for 9 min and re-equilibration for 7 min. Metabolites were detected and quantified as area under the curve based on retention time and accurate mass (≤ 3 p.p.m.) using the TraceFinder 3.1 (Thermo Scientific). Relative amounts of […]

[1] = metabolite Asn (C00152), listed as D
[2] = metabolite Asp (C00049), listed as D
[3] = metabolite Carnitine (C00318), listed as D
[4] = metabolite G3P (KEGG C00118), listed as D
[5] = metabolite G6P-F6P (KEGG C00668), listed as D
[6] = metabolite GABA (KEGG C00334), listed as D
[7] = metabolite GDP (KEGG C00035), listed as D
[8] = metabolite GMP (KEGG C00144), listed as D
[9] = metabolite GSH (KEGG C00051), listed as D
[10] = metabolite GSSG (KEGG C00127), listed as D
[11] = metabolite GTP (KEGG C00044), listed as D
[12] = metabolite Glc (KEGG C00031), listed as D
[13] = metabolite GlcA (KEGG C00257), listed as D
[14] = metabolite GlcN-6P (KEGG C00352), listed as D
[15] = metabolite GlcNAc-6P (KEGG C00357), listed as D
[16] = metabolite Gln (KEGG C00064), listed as D
[17] = metabolite Glu (KEGG C00025), listed as D
[18] = metabolite GlucA (KEGG C00191), listed as D
[19] = metabolite Gly (KEGG C00037), listed as D
[20] = metabolite Glycerol (KEGG C00116), listed as D
[21] = metabolite Glycerol-2-P (KEGG C02979), listed as D
[22] = metabolite Glycerol-3-P (KEGG C00093), listed as D
[23] = metabolite His (KEGG C00135), listed as D
[24] = metabolite Homocysteine (KEGG C00155), listed as D
[25] = metabolite Hypoxanthine (KEGG C00262), listed as D
[26] = metabolite IMP (KEGG C00130), listed as D
[27] = metabolite Inosine (KEGG C00294), listed as D
[28] = metabolite a-KG (C00026), listed as D

COc1ccc(-c2nc([C@@H](C)Sc3nc(N)cc(N)n3)c(C)s2)cc1OCCNS(C)(=O)=O [dCKi]
Relative level, Arg-Succ (metabolite Arg-Succ (C03406), listed as D): 1.1 and 1.2 and 1.4 and 0.428 and 0.458 and 0.6 | Glucose labeling, Asn [1]: 0.000993% and 2.77e-6% and 0.00524% and 0.00322% and 0.000183% and 2.2e-6% | Relative level, Asn [1]: 1.1 and 1.3 (2×) and 0.8 and 0.7 and 0.85 | Glucose labeling, Asp [2]: 24.08% and 25.99% and 25.39% and 25.08% and 25.80% and 25.92% | Relative level, Asp [2]: 0.9 (3×) and 1.1 and 0.5 and 0.6 | Glucose labeling, C (metabolite C (D07769), listed as D): 0.44% (4×) and 0.15% and 0.31% | Relative level, C (metabolite C, listed as D): 1.0 and 1.2 and 1.3 (2×) and 1.4 and 1.1 | Glucose labeling, Carnitine [3]: 0.0041% and 0.00586% and 0.00566% and 0.00463% and 0.00467% and 0.00476% | Relative level, Carnitine [3]: 1.0 and 1.1 (2×) and 0.9 (2×) and 0.843 | Glucose labeling of G3P [4]: 100.00% (3×) and 0.0369% (3×) | Relative level of G3P [4]: 0.316 and 1.2 and 0.237 and 0.232 | Glucose labeling of G6P-F6P [5]: 57.18% and 69.30% and 72.35% and 21.95% and 56.24% and 64.94% | Relative level of G6P-F6P [5]: 0.6 and 0.7 and 1.0 and 0.163 and 0.339 and 0.4 | Glucose labeling of GABA [6]: 0.0266% and 0.0568% and 0.0445% and 0.0322% and 0.0737% (2×) | Relative level of GABA [6]: 1.2 and 1.4 and 1.5 and 0.6 and 0.5 and 0.466 | Glucose labeling of GDP [7]: 100.00% (2×) and 89.71% and 79.16% and 66.81% and 77.84% | Relative level of GDP [7]: 0.278 and 0.74 and 2.1 and 0.0943 and 0.533 | Glucose labeling of GMP [8]: 82.17% and 84.38% and 86.57% and 100.00% and 55.56% and 83.28% | Relative level of GMP [8]: 1.0 (2×) and 2.5 and 0.177 and 0.7 | Glucose labeling of GSH [9]: 24.91% and 25.95% and 26.01% and 22.52% and 20.58% and 22.91% | Relative level of GSH [9]: 0.8 and 1.1 and 1.4 and 0.2 and 0.245 and 0.4 | Glucose labeling of GSSG [10]: 44.73% and 47.85% and 45.35% and 40.72% and 38.47% and 41.79% | Relative level of GSSG [10]: 1.0 (2×) and 1.3 and 1.5 and 0.364 and 0.7 | Glucose labeling of GTP [11]: 88.53% and 93.02% and 84.10% and 100.00% and 95.85% and 82.17% | Relative level of GTP [11]: 0.137 and 0.6 and 1.3 and 0.0117 and 0.173 and 0.5 | Glucose labeling of Glc [12]: 48.02% and 85.76% and 96.57% and 84.10% and 87.56% and 88.93% | Relative level of Glc [12]: 0.632 and 1.4 and 6.6 and 1.5 and 2.2 and 2.0 | Glucose labeling of GlcA [13]: 38.48% and 42.08% and 42.11% and 29.34% and 32.69% and 34.11% | Relative level of GlcA [13]: 1.0 (2×) and 1.4 and 0.4 and 0.5 and 0.7 | Glucose labeling of GlcN (metabolite GlcN (KEGG C00329)): 0.18% | Relative level of GlcN (metabolite GlcN (KEGG C00329), listed as D): 1.4 and 0.948 and 0.9 (2×) and 1.0 and 0.8 | Glucose labeling of GlcN-6P [14]: 6.04% and 8.63% and 7.74% and 8.56% and 9.86% and 9.69% | Relative level of GlcN-6P [14]: 0.8 and 0.847 and 1.1 and 0.743 and 0.7 and 1.0 | Glucose labeling of GlcNAc-6P [15]: 12.90% and 10.87% and 25.06% and 34.14% and 41.68% and 27.99% | Relative level of GlcNAc-6P [15]: 0.636 and 0.8 and 1.2 and 0.212 and 0.6 (2×) | Glucose labeling of Gln [16]: 0.24% and 0.28% (4×) and 0.29% | Relative level of Gln [16]: 1.0 (2×) and 1.2 and 1.3 and 0.9 (2×) | Glucose labeling of Glu [17]: 30.50% and 31.50% and 31.06% and 32.25% and 32.69% and 32.43% | Relative level of Glu [17]: 1.0 and 1.1 and 1.2 and 0.6 (2×) and 0.751 | Glucose labeling of GlucA [18]: 0.47% and 1.38% and 1.95% and 0.76% and 1.61% and 0.18% | Relative level of GlucA [18]: 1.5 and 0.9 and 1.3 and 0.635 and 0.563 and 0.7 | Glucose labeling of Gly [19]: 5.78% and 6.19% and 5.38% and 3.11% and 3.32% and 3.83% | Relative level of Gly [19]: 1.1 and 1.3 and 1.2 (2×) and 0.9 and 0.854 | Glucose labeling of Glycerol [20]: 0.0257% and 0.0369% (2×) and 0.03% and 0.00165% and 0.0279% | Relative level of Glycerol [20]: 0.8 (2×) and 0.7 and 1.5 and 2.6 and 2.4 | Glucose labeling of Glycerol-2-P [21]: 12.49% and 5.31% and 20.27% and 20.32% and 0.0369% and 11.49% | Relative level of Glycerol-2-P [21]: 0.6 and 0.5 and 1.9 and 0.0423 and 0.16 and 0.346 | Glucose labeling of Glycerol-3-P [22]: 15.24% and 16.29% and 15.98% and 18.03% and 18.16% and 17.98% | Relative level of Glycerol-3-P [22]: 1.0 and 0.9 (2×) and 0.7 (2×) and 0.656 | Glucose labeling of HS2O3 (metabolite HS2O3 (KEGG C00320)): 100.00% | Relative level of HS2O3 (metabolite HS2O3 (KEGG C00320), listed as D): 0.9 (2×) and 1.0 and 0.8 and 1.1 (2×) | Glucose labeling of His [23]: 0.00% (5×) and 1.11e-14% | Relative level of His [23]: 1.2 and 1.3 and 1.5 and 0.76 and 0.6 and 0.7 | Glucose labeling of Homocysteine [24]: 0.022% and 0.0737% and 0.000309% and 0.01% and 0.000455% and 0.23% | Relative level of Homocysteine [24]: 2.7 and 0.5 and 1.5 (2×) and 3.4 and 0.855 | Glucose labeling of Hypoxanthine [25]: 0.00941% and 0.12% (4×) and 0.06% | Relative level of Hypoxanthine [25]: 2.0 and 0.2 and 1.0 and 1.3 (2×) and 2.9 | Glucose labeling of IMP [26]: 93.29% and 98.06% and 95.55% and 100.00% and 94.31% and 97.32% | Relative level of IMP [26]: 0.7 and 0.8 and 1.6 and 0.111 and 0.323 and 0.6 | Glucose labeling of Inosine [27]: 0.55% (4×) and 100.00% and 49.07% | Relative level of Inosine [27]: 0.5 and 0.547 and 0.3 and 0.568 and 0.6 | Glucose labeling of Inositol (metabolite Inositol (KEGG C00137)): 0.00% | Relative level of Inositol (metabolite Inositol (KEGG C00137), listed as D): 1.0 (2×) and 1.6 (2×) and 1.1 (2×) | Glucose labeling, a-KG [28]: 4.27% and 11.78% and 16.08% and 0.12% (2×) and 4.73% | Relative level, a-KG [28]: 0.7 and 1.1 and 2.3 and 0.0795 and 0.14 and 0.259
